Data set [1] relates to tubulin. As to conditions: read-out: Inhibition of tubulin polymerization IC50; ref [34]; cited from earlier work.
The test system of data set [2] is tubulin. Nature of the data set: Inhibition of [3H]colchicine binding to tubulin. Conditions: inhibitor 5 µM; 1 µM tubulin, 5 µM [3H]colchicine.
In data set [3] the test system is HUVECs capillary-like tubule network. Nature of the data set: HUVEC endothelial tube disruption on Matrigel. In kind it is cell-based, human. As to conditions: 2 h treatment of network pre-established over 16 h.
For data set [4], the system named is NCI-H460 non-small cell lung cancer cell line. Nature of the data set: Cytotoxicity, SRB assay, NCI-H460. As to conditions: Homo sapiens, NCI-H460, read-out: GI50 SRB assay NCI-H460.
Data set [5] in a line: Solubility in water / D2O. It is filed as physicochemical.

Broadly, the IC50 is the concentration that inhibits the measured activity by half. One may read the GI50 as the concentration at which growth is held to half of that of the control.

On to `COc1ccc(/C=C\c2cc(OC)c(OC)c(OC)c2)c(O)c1O` [CA1, Combretastatin A-1], for which the IC50 with tubulin [1] is 1900 nM.
Regarding `COc1ccc(/C=C\c2cc(OC)c(OC)c(OC)c2)cc1O` [CA4, combretastatin A-4, reference compound], the “Inhibition of Colchicine binding” value with tubulin [2] is recorded as 100%. The Tubule disruption result in data set [3] (0.01 µM) is recorded as “tubule disruption activity was detected”.
For `COc1ccc2c(c1N)CCCC=C2c1cc(OC)c(OC)c(OC)c1` [Compound 3], the Tubule disruption entry in data set [3] (0.10 µM) was “Tubule disruption and cell rounding was observed”; in data set [3] (1 µM), “greatly increased”. In addition, the GI50 in data set [4] was determined as 4.69 nM.
As for `COc1ccc2c(c1N)CCCC=C2c1cc(OC)c(OC)c(OC)c1.Cl` [Compound 16], in data set [5] (hydrochloride salt), the Solubility in water entry is reported as “limited solubility in water”. In addition, the Amount completely dissolved entry in data set [5] (in approximately 1.0 mL of D2O (NMR study), clear solution took several days) is given as “approximately 3 mg”.
